Numbers after ± are expanded uncertainties.
Test: cn = amount concentration of the nth substance listed, in mol/dm3
Details: 298 K; for surface tension liquid-gas: Ring tensiometer; for kinematic viscosity / speed of sound / mass density: 101.33 kPa, Liquid; for kinematic viscosity: Capillary tube (Ostwald / Ubbelohde) method; for speed of sound: Sing-around technique in a fixed-path interferometer

O [water] + CCCCCCCCCCCCCCCCCC[N+](C)(C)C.[Br-]
c2 = 0
Details	kinematic viscosity [m2/s]	surface tension liquid-gas [mN/m]
–	8.957e-07 ± 6.1e-09	72.5 ± 0.9

O [water] + CCCCCCCCCCCCCC[N+](C)(C)C.[Br-]
c2 = 0
Details	kinematic viscosity [m2/s]	surface tension liquid-gas [mN/m]
–	8.957e-07 ± 6.1e-09	72.5 ± 0.9

CCCCCCCCCCCCCCCCCC[N+](C)(C)C.[Br-] [N,N,N-trimethyl-1-octadecanaminium bromide] + O
Details	kinematic viscosity [m2/s]	mass density [kg/m3]	speed of sound [m/s]	surface tension liquid-gas [mN/m]
c1 = 0.001	8.957e-07 ± 6.1e-09	997.053 ± 0.27	1497.2 ± 0.9	62.3 ± 0.8
c1 = 0.002	8.958e-07 ± 6.1e-09	997.053 ± 0.27	1497.7 ± 0.9	54.2 ± 0.7
c1 = 0.003	8.958e-07 ± 6.1e-09	997.053 ± 0.27	1498 ± 0.9	48.7 ± 0.6
c1 = 0.004	8.958e-07 ± 6.1e-09	997.053 ± 0.27	1498.2 ± 0.9	45 ± 0.6
c1 = 0.005	8.959e-07 ± 6.1e-09	997.053 ± 0.27	1498 ± 0.9	42.8 ± 0.6
c1 = 0.006	8.959e-07 ± 6.1e-09	997.054 ± 0.27	1497.8 ± 0.9	42 ± 0.6
c1 = 0.008	8.96e-07 ± 6.1e-09	997.054 ± 0.27	1497.2 ± 0.9	41.4 ± 0.6
c1 = 0.01	8.96e-07 ± 6.1e-09	997.054 ± 0.27	1496.7 ± 0.9	41.3 ± 0.6
c1 = 0.013	8.961e-07 ± 6.2e-09	997.054 ± 0.27	1496 ± 0.9	41 ± 0.6
c1 = 0.016	8.962e-07 ± 6.2e-09	997.054 ± 0.27	1495.2 ± 0.9	40.8 ± 0.6
c1 = 0.02	8.963e-07 ± 6.2e-09	997.055 ± 0.27	1494.2 ± 0.9	40.4 ± 0.6
c1 = 0.025	8.965e-07 ± 6.2e-09	997.055 ± 0.27	1492.7 ± 0.9	40.2 ± 0.5
c1 = 0.03	8.966e-07 ± 6.2e-09	997.056 ± 0.27	1491.6 ± 0.9	39.6 ± 0.5
c1 = 0.04	8.969e-07 ± 6.2e-09	997.057 ± 0.27	1489.2 ± 0.9	39.3 ± 0.5

CCCCCCCCCCCCCC[N+](C)(C)C.[Br-] [tetradecyltrimethylammonium bromide] + O
Details	kinematic viscosity [m2/s]	mass density [kg/m3]	speed of sound [m/s]	surface tension liquid-gas [mN/m]
c1 = 0.001	8.962e-07 ± 6.1e-09	997.062 ± 0.26	1496.9 ± 0.9	60.4 ± 0.8
c1 = 0.002	8.968e-07 ± 6.2e-09	997.064 ± 0.27	1497.2 ± 0.9	51.7 ± 0.7
c1 = 0.003	8.991e-07 ± 6.2e-09	997.087 ± 0.27	1497.3 ± 0.9	44 ± 0.6
c1 = 0.005	9.015e-07 ± 6.2e-09	997.106 ± 0.27	1497.4 ± 0.9	40.6 ± 0.6
c1 = 0.01	9.078e-07 ± 6.2e-09	997.153 ± 0.27	1497.5 ± 0.9	38 ± 0.5
c1 = 0.015	9.144e-07 ± 6.3e-09	997.204 ± 0.27	1497.6 ± 0.9	37.8 ± 0.5
c1 = 0.02	9.215e-07 ± 6.3e-09	997.268 ± 0.26	1497.7 ± 0.9	37.6 ± 0.5
c1 = 0.025	9.29e-07 ± 6.4e-09	997.307 ± 0.26	1497.8 ± 0.9	37.4 ± 0.5
c1 = 0.03	9.368e-07 ± 6.4e-09	997.349 ± 0.26	1497.8 ± 0.9	37.1 ± 0.5
c1 = 0.035	9.45e-07 ± 6.5e-09	997.402 ± 0.26	1497.9 ± 0.9	37 ± 0.5
c1 = 0.04	9.537e-07 ± 6.5e-09	997.458 ± 0.26	1497.9 ± 0.9	36.9 ± 0.5
c1 = 0.045	9.627e-07 ± 6.6e-09	997.5 ± 0.26	1498 ± 0.9	36.8 ± 0.5
c1 = 0.05	9.722e-07 ± 6.7e-09	997.545 ± 0.26	1498.1 ± 0.9	36.7 ± 0.5
c1 = 0.055	9.82e-07 ± 6.7e-09	997.604 ± 0.26	1498.1 ± 0.9	36.7 ± 0.5
